Measured values from article PMC9880324, “Sugar perception in honeybees” (Frontiers in Physiology, 2023).

Columns and labels:
AmGr3 = target: T1, AmGr3 (Apis mellifera, UniProt A0A7M7IGL4); assay: two-electrode voltage clamp, Xenopus oocytes; type: cell-based; conditions: 160 mM sugar, pH 7.5, -80 and -140 mV; agonist
T1 construct: gene LOC725483; cDNA cloned from taste tissue, subcloned in pNBIu, cRNA expressed alone in Xenopus oocytes
T1 sequence (A0A7M7IGL4 1-474): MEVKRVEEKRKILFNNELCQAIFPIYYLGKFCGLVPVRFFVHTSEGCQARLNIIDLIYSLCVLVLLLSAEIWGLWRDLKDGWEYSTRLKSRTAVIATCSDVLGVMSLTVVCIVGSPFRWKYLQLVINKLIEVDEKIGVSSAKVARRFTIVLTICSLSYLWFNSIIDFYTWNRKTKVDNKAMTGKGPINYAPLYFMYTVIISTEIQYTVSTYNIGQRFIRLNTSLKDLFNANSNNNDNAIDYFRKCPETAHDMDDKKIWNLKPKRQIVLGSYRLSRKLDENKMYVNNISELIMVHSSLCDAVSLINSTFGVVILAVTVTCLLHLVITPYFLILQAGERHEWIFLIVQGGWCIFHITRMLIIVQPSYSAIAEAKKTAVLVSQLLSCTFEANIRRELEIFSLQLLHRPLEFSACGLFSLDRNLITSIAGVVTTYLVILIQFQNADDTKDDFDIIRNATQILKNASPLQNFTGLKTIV

AmGr2 = target: T2, AmGr2 (Apis mellifera, UniProt A0A7M7R6T6); assay: two-electrode voltage clamp, Xenopus oocytes; type: cell-based; conditions: 160 mM sugar, pH 7.5, -80 mV, agonist
T2 construct: gene LOC413684; cDNA cloned from taste tissue, subcloned in pNBIu, cRNA expressed alone in Xenopus oocytes; homomer
T2 sequence (A0A7M7R6T6 1-470): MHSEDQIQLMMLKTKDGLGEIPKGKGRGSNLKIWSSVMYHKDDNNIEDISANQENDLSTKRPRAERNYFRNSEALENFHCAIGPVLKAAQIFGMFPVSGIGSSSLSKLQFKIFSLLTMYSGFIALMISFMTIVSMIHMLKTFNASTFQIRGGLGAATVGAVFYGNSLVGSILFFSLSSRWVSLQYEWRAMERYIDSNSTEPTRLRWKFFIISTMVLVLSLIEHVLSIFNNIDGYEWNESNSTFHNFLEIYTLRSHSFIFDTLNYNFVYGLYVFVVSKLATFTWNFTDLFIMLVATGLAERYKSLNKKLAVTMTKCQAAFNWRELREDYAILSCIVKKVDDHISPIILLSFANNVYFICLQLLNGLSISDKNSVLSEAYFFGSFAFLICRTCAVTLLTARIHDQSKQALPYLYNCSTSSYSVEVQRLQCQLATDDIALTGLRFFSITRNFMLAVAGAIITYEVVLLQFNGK

SMILES: OCC1(O)OC[C@@H](O)[C@@H](O)[C@@H]1O (stereo partly drawn) [fructose]
- two-electrode voltage clamp, Xenopus oocytes (AmGr3): The sole expression of AmGr3 in oocytes revealed only fructose-induced current responses

SMILES: OC[C@H]1OC(O)[C@H](O)[C@@H](O)[C@@H]1O (stereo partly drawn) [glucose]
- two-electrode voltage clamp, Xenopus oocytes (AmGr2; transient microscopic inward current): AmGr2-expression revealed transient inward currents during glucose application

SMILES: OC[C@H]1O[C@@](CO)(O[C@H]2O[C@H](CO)[C@@H](O)[C@H](O)[C@H]2O)[C@@H](O)[C@@H]1O [sucrose]
- two-electrode voltage clamp, Xenopus oocytes (AmGr2; microscopic inward current): Sustained inward currents could only be generated by application of sucrose
